Data from ChEMBL document CHEMBL4229418, “Design, synthesis and pharmacology of aortic-selective acyl-CoA: Cholesterol O-acyltransferase (ACAT/SOAT) inhibitors” (Bioorg Med Chem, 2018).
Calls of active or inactive are those of the source. The calls are words filed in the database; no cut-off is given here.

How the values were obtained:
[1] = Inhibition of SOAT2 in New Zealand white rabbit intestinal microsomes assessed as reduction in cholesteryl oleate formation incubated for 5 mins in presence of [14C]-oleoyl-CoA and BSA complex by TLC method; set-up: species or system Oryctolagus cuniculus, Intestine
[2] = Inhibition of SOAT1 in arterial homogenates isolated from 1% cholesterol fed New Zealand white rabbit assessed as reduction in cholesteryl oleate formation incubated for 5 mins in presence of [14C]-oleoyl-CoA and BSA complex by TLC method; assay type: tissue-based, Oryctolagus cuniculus
[3] = target: T1, Sterol O-acyltransferase 1 (Rattus norvegicus, UniProt O70536); assay: Inhibition of ACAT1 in 1 mg/ml rat liver microsomes
T1 sequence (O70536 whole entry): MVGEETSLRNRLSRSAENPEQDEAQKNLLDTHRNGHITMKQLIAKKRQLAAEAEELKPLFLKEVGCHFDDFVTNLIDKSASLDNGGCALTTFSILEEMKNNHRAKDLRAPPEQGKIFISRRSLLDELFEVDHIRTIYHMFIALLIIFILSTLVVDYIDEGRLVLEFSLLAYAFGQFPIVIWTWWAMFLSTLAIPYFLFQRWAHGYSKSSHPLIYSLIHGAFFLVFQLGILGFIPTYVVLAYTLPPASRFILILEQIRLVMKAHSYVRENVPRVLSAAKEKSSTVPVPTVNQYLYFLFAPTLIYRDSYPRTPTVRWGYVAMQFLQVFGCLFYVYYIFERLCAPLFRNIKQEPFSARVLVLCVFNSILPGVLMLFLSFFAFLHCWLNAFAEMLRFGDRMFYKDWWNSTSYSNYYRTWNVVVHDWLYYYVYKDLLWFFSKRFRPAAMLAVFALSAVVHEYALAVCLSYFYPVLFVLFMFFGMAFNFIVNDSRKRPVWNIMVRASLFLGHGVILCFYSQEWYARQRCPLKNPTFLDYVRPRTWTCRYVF

Hamster [4] = assay: Toxicity in Bio F1B hamster model of diet-induced atherosclerosis assessed as reduction in total plasma cholesterol at 1 mg/kg/day added to chow pellets relative to control; assay type: organism-based; set-up: scale not given: the % may be the effect or the level left; settings: cricetinae, in vivo
[5] = Cmax in non-fasted Sprague-Dawley rat at 30 mg/kg, po by LC-MS/MS analysis; assay type: ADME, organism-based; set-up: dose 30 mg/kg, route oral; settings: in vivo
[6] = target: T2, Sterol O-acyltransferase 1 (Homo sapiens, UniProt P35610); assay: Inhibition of ACAT1 in human monocytes-derived macrophages reduction in cholesteryl oleate formation preincubated for 2 hrs followed by [14C]-oleic acid/BSA/sodium oleate addition measured after 2 hrs by TLC assay
T2 sequence (P35610 whole entry): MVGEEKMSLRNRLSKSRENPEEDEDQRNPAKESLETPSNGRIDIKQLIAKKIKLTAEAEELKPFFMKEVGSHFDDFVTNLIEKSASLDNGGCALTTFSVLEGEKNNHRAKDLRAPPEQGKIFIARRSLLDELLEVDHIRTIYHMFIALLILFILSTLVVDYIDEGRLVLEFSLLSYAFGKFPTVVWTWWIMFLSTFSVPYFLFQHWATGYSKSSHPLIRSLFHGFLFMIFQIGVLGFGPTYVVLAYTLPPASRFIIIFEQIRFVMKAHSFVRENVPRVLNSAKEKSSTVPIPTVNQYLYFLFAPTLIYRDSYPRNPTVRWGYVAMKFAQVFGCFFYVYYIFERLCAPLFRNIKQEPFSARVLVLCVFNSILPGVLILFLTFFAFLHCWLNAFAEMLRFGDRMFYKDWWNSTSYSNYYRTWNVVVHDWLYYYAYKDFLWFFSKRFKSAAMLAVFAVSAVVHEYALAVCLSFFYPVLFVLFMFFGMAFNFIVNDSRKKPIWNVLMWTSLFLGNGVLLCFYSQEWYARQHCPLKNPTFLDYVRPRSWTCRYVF

[7] = target: T3, Sterol O-acyltransferase 1 (Mus musculus, UniProt Q61263); assay: Inhibition of ACAT1 in mouse IC21 cells in absence of BSA; assay type: cell-based
T3 sequence (Q61263 whole entry): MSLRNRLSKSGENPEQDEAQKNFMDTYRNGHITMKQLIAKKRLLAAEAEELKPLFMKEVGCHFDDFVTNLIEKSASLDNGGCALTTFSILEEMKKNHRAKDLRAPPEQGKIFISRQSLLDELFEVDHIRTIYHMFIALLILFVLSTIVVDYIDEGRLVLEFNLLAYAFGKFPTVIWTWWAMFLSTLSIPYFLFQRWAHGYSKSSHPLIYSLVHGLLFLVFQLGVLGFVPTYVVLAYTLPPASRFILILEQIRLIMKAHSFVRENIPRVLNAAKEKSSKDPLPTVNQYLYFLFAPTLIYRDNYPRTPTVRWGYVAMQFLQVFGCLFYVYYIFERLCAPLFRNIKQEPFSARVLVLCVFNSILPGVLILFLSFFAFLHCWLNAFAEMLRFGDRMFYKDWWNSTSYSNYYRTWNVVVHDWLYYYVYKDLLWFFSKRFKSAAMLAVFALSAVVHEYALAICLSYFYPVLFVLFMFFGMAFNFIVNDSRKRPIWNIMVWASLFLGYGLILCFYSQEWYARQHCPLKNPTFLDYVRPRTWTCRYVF

[8] = target: T3, Sterol O-acyltransferase 1; assay: Inhibition of ACAT1 in mouse IC21 cells in presence of BSA; assay type: cell-based
Hamster [9] = assay: Antiatherosclerotic activity in Bio F1B hamster model of diet-induced atherosclerosis assessed as reduction in lipid accumulation areas in aortic arch at 10 mg/kg/day added to chow pellets by oil red O staining based assay relative to control; assay type: functional; settings: Cricetinae
[10] = AUC (0 to 8 hrs) in non-fasted Sprague-Dawley rat at 30 mg/kg, po by LC-MS/MS analysis; assay type: ADME, organism-based; set-up: dose 30 mg/kg, time < 8 hr, route oral; settings: in vivo
Oryctolagus cuniculus = species on record: Oryctolagus cuniculus; assay: Selectivity ratio of IC50 for inhibition of SOAT2 in New Zealand white rabbit intestinal microsomes to IC50 for inhibition of SOAT1 in arterial homogenates isolated from 1% cholesterol fed New Zealand white rabbit
[11] = Tmax in non-fasted Sprague-Dawley rat at 30 mg/kg, po by LC-MS/MS analysis; assay type: ADME, organism-based; settings: in vivo
[12] = target: T2, Sterol O-acyltransferase 1; assay: Inhibition of ACAT1 in human monocytes-derived macrophages reduction in cholesteryl oleate formation preincubated for 2 hrs followed by [14C]-oleic acid/sodium oleate addition measured after 2 hrs in absence of albumin by TLC assay
Hamster [13] = assay: Antiatherosclerotic activity in Bio F1B hamster model of diet-induced atherosclerosis assessed as reduction in lipid accumulation areas in aortic arch at 0.3 mg/kg/day added to chow pellets by oil red O staining based assay; assay type: functional, organism-based; settings: Cricetinae
Hamster [14] = assay: Toxicity in Bio F1B hamster model of diet-induced atherosclerosis assessed as reduction in total plasma cholesterol at 10 mg/kg/day added to chow pellets relative to control; assay type: organism-based; set-up: scale not given: the % may be the effect or the level left; settings: cricetinae, in vivo
Hamster [15] = assay: Antiatherosclerotic activity in Bio F1B hamster model of diet-induced atherosclerosis assessed as reduction in lipid accumulation areas in aortic arch at 1 mg/kg/day added to chow pellets by oil red O staining based assay relative to control; assay type: functional; settings: Cricetinae
[16] = target: T3, Sterol O-acyltransferase 1; assay: Inhibition of ACAT1 in mouse J774 cells assessed as reduction in esterified cholesterol accumulation after 18 hrs in presence of 25-hydroxycholesterol; assay type: cell-based
[17] = target: T1, Sterol O-acyltransferase 1; assay: Inhibition of ACAT1 in 0.2 mg/ml rat liver microsomes
Hamster [18] = assay: Toxicity in Bio F1B hamster model of diet-induced atherosclerosis assessed as reduction in total plasma cholesterol at 3 mg/kg/day added to chow pellets relative to control; assay type: organism-based; set-up: scale not given: the % may be the effect or the level left; settings: cricetinae, in vivo
Hamster [19] = assay: Antiatherosclerotic activity in Bio F1B hamster model of diet-induced atherosclerosis assessed as reduction in lipid accumulation areas in aortic arch at 3 mg/kg/day added to chow pellets by oil red O staining based assay relative to control; assay type: functional; settings: Cricetinae
[20] = Inhibition of rabbit intestinal ACAT2; set-up: species or system Oryctolagus cuniculus
[21] = Drug metabolism in New Zealand white rabbit intestinal microsomes assessed as -((6-((2,6-Diisopropylphenyl)amino)-6-oxohexyl)thio)benzo-[d]oxazole-7-carboxylic acid formation after 30 mins; assay type: ADME, Oryctolagus cuniculus, Intestine, microsome; settings: 0.5 h
[22] = Drug metabolism in New Zealand white rabbit intestinal microsomes assessed as 2-((6-((2,6-Diisopropylphenyl)amino)-6-oxohexyl)thio)-benzo[d]oxazole-4-carboxylic acid formation after 30 mins; assay type: ADME, Oryctolagus cuniculus, Intestine, microsome; settings: 0.5 h

| SMILES | IC50 [1] [nM] | IC50 [2] [nM] | Ratio IC50 (Oryctolagus cuniculus) | IC50 [16] [nM] | other results |
| --- | --- | --- | --- | --- | --- |
| CC(C)c1cc(C(C)C)c(CC(=O)NS(=O)(=O)Oc2c(C(C)C)cccc2C(C)C)c(C(C)C)c1 [AVASIMIBE] | 13000 | 31000 | 0.4 | 590 | IC50 [3]: 12 µM; Activity (Hamster [4]): 55%; Cmax [5]: 4580 ng/mL; IC50 [6]: 4.1 µM; IC50 [7]: 60 nM; IC50 [8]: 760 nM; inhibition in vivo at 10 mg/kg/day (Hamster [9]): 0%; AUC(0-t) at 8 h [10]: 48100 ng·h/mL; Tmax [11]: 3.3 h; IC50 [12]: 25 nM; inhibition (Hamster [13]): Active; Activity (Hamster [14]): 10%; inhibition in vivo at 1 mg/kg/day (Hamster [15]): 33%; IC50 [17]: 700 nM; Activity (Hamster [18]): 25%; inhibition in vivo at 3 mg/kg/day (Hamster [19]): 14% |
| CCCCCCCCCCC(C)(C)C(=O)Nc1c(OC)cc(OC)cc1OC [CL-976] | 30 | 190 |  |  | IC50 [20]: 73 nM |
| COC(=O)c1cccc2oc(SCCCCCC(=O)Nc3c(C(C)C)cccc3C(C)C)nc12 | 810 | 26 | 31.2 | 900 | Drug metabolism [21]: Metabolite_Detected; Drug metabolism [22]: Metabolite_Detected |
| CC(C)c1cccc(C(C)C)c1NC(=O)CCCCCCCSc1nc2ccccc2s1 | 36 | 7 | 5.1 | 59 |  |
| CC(C)c1cccc(C(C)C)c1NC(=O)CCCCCCCCSc1nc2ccccc2[nH]1 | 31 | 14 | 2.2 | 300 |  |
| CC(C)c1cccc(C(C)C)c1NC(=O)CCCCCSc1nc2cc(O)ccc2o1 | 120 | 43 | 2.8 | 2800 |  |
| CC(C)c1cccc(C(C)C)c1NC(=O)CCCCSc1nc2ccccc2[nH]1 | 430 | 390 | 1.1 | 5200 |  |
